Assay results from publication PMC10700596 (Nature Communications, 2023).
Several values for one entry are separate records, joined by “and”; a condition that tells them apart may be missing. Equal entries are not always repeated. Where two headings read alike, the source gives them in different places.

Experiments:
[1] = target: ERBB4 (Homo sapiens, UniProt Q15303); assay: biochemical; type: binding; conditions: 10000 nM; read-out: Percent Control
[2] = target: ABL1-phosphorylated (Homo sapiens, UniProt P00519); assay: biochemical; type: binding; conditions: 10000 nM; read-out: Percent Control
[3] = target: LKB1 (Homo sapiens, UniProt Q15831); assay: biochemical; type: binding; conditions: 10000 nM; read-out: Percent Control
Excerpt: (§1) Source data are provided as a Source Data file.

[4] = target: MEK2 (Homo sapiens, UniProt P36507); assay: biochemical; type: binding; conditions: 10000 nM; read-out: Percent Control
MEK2, sequence (P36507 whole entry): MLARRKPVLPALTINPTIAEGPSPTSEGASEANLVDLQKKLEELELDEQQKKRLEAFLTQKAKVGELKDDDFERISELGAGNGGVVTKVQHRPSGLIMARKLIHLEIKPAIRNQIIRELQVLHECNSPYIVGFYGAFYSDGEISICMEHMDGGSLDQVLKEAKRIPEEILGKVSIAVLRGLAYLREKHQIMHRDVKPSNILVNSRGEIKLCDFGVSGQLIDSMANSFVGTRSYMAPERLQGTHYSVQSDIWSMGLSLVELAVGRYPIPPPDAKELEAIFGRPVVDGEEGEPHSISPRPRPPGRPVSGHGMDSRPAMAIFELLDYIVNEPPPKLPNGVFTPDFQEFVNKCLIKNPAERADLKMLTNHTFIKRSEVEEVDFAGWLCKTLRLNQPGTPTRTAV
Excerpt: as §1

[5] = target: PLK3 (Homo sapiens, UniProt Q9H4B4); assay: biochemical; type: binding; conditions: 10000 nM; read-out: Percent Control
Excerpt: as §1

[6] = target: PIM3 (Homo sapiens, UniProt Q86V86); assay: biochemical; type: binding; conditions: 10000 nM; read-out: Percent Control
Excerpt: as §1

[7] = target: KIT(D816V) (Homo sapiens, UniProt P10721, D816V); assay: biochemical; type: binding; conditions: 10000 nM; read-out: Percent Control
KIT(D816V), sequence (P10721 26-976 D816V): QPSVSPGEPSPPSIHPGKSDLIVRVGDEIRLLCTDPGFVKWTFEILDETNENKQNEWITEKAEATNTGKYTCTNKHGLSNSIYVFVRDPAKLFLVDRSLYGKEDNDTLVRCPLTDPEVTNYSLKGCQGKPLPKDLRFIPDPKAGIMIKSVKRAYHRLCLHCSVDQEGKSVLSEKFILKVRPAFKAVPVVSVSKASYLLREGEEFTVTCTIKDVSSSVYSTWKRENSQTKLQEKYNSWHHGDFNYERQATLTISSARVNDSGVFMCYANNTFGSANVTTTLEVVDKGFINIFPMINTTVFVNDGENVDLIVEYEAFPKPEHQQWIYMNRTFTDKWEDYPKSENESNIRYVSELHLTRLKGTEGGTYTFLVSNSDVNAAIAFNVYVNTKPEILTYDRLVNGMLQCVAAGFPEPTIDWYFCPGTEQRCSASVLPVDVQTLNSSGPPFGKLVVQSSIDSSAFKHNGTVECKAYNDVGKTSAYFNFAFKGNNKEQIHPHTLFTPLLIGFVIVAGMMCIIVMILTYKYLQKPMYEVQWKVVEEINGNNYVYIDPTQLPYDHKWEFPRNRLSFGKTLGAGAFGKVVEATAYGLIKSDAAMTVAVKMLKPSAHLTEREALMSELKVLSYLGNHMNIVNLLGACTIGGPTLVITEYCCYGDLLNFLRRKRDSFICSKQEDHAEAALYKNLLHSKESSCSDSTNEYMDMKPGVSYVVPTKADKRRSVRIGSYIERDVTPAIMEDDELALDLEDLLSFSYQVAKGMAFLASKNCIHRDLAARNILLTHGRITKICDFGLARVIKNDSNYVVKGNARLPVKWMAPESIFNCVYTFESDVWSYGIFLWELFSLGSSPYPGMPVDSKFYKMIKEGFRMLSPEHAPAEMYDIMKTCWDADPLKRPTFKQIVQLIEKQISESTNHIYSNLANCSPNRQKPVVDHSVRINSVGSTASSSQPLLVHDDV
Excerpt: as §1

[8] = target: PLK1 (Homo sapiens, UniProt P53350); assay: biochemical; type: binding; conditions: 10000 nM; read-out: Percent Control
PLK1, sequence (P53350 whole entry): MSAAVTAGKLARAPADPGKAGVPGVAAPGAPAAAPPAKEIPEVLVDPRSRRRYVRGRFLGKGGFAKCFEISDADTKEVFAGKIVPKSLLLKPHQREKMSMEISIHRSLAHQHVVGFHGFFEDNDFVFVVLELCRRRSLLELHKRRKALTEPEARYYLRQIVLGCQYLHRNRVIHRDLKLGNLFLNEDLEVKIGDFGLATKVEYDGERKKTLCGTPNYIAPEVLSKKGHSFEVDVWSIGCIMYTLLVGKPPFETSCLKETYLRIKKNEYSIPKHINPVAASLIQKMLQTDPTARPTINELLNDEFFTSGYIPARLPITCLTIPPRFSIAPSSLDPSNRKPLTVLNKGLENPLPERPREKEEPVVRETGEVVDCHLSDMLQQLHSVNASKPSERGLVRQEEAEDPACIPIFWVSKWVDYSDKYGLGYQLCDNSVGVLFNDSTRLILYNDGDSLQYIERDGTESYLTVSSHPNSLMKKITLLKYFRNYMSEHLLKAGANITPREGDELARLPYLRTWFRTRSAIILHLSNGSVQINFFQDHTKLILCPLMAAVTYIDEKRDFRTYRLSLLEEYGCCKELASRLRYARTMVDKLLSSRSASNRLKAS
Excerpt: as §1

[9] = target: T1, EP4R (Homo sapiens, UniProt P35408); assay: biochemical; type: binding; conditions: 3H-PGE2; read-out: Radiologand displacement Ki
T1 construct: Tango fusion cassette (only 'tango' is printed); expressed in transfected cells; host or cells: HTLA cells (tTA-dependent luciferase reporter, β-arrestin2-TEV fusion)

[10] = target: T2, JAK2(JH1domain-catalytic) (Homo sapiens, UniProt O60674); assay: KINOMEscan; type: binding
T2 construct: JAK2(JH1domain-catalytic); purchased Eurofins DiscoverX KINOMEscan (scanEDGE, 97 kinases)
T2 sequence (O60674 810-1132 limits assumed): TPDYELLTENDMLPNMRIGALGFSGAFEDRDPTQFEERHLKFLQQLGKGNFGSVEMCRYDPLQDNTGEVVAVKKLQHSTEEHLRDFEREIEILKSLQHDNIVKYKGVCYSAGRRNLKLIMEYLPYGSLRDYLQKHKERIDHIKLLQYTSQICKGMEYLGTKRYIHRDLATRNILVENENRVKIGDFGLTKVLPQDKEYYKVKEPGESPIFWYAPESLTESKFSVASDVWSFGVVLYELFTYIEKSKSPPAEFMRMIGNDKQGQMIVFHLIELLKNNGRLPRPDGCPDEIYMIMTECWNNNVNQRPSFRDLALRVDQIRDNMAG

[11] = target: BRAF(V600E) (Homo sapiens, UniProt P15056, V600E); assay: biochemical; type: binding; conditions: 10000 nM; read-out: Percent Control
BRAF(V600E), sequence (P15056 whole entry V600E): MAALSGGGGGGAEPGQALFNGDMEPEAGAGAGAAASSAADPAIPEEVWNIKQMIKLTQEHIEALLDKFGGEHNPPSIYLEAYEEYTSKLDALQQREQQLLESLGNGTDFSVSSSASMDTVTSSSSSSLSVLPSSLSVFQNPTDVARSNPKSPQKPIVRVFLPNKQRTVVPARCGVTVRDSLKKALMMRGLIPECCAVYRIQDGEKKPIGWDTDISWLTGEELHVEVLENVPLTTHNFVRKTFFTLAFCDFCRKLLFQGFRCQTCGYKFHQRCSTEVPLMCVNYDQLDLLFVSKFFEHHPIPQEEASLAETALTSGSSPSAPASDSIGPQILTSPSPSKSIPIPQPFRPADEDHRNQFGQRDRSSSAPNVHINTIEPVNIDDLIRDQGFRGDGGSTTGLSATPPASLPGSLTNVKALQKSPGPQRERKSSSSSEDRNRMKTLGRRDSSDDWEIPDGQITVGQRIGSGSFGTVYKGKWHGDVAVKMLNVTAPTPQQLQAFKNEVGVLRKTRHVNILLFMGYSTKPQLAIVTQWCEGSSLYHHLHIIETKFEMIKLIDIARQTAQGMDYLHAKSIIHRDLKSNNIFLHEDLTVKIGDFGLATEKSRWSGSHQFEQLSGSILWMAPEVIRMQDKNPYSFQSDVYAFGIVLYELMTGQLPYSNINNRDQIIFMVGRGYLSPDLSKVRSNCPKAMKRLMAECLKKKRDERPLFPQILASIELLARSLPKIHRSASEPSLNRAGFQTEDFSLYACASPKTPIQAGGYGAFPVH

[12] = test system: 97 human kinases; type: binding; conditions: 10 µM
Excerpt: . […] This panel includes several adverse drug reaction receptors such as the serotonin receptor 5HT2b, M1 and M2 muscarinic receptors and adrenergic receptors. […]. page 7:
Supplementary Figure 7: Non-GPCR off-target screening for 74. a)-e) Dose-response curves of 74 at […]
proliferator-activated receptor gamma (PPARγ, Eurofins item G124). Data in a)-e) and g)-i) represent two technical replicates. Source data are provided as a Source Data file.
(1 picture or pasted object on this page, not shown here)
Description of Additional Supplementary Files
File Name: Supplementary Data 1
Description: List of all compounds described in this work.
For each compound, the compound number, the virtual library code (ZINC / Design ID), the Enamine catalog code (Enamine catalog ID), 2D information (SMILES) and a brief description whether the compound was derived from virtual screening or optimization of initial hits (Set) are provided. For virtual screening compounds, the displacement of radiolabeled 3HPGE2 at 10 µM in the initial binding assay at […]
For hit compounds, logIC50, IC50 and Ki in the EP4R PRESTO-Tango or EP4R Arrestin-BRET assays are shown. For lead compounds, the Kb in the EP4R cAMP Assay and Ki from the EP4R radioligand displacement assay are listed.
File Name: Supplementary Data 2
Description: Off-target screening of compound 74 against a panel of 97 human kinases (KINOMEscan, […]

[13] = target: T3, JAK3(JH1domain-catalytic) (Homo sapiens, UniProt P52333); assay: KINOMEscan; type: binding
T3 construct: JAK3(JH1domain-catalytic); purchased Eurofins DiscoverX KINOMEscan (scanEDGE, 97 kinases)
T3 sequence (P52333 782-1124 limits assumed): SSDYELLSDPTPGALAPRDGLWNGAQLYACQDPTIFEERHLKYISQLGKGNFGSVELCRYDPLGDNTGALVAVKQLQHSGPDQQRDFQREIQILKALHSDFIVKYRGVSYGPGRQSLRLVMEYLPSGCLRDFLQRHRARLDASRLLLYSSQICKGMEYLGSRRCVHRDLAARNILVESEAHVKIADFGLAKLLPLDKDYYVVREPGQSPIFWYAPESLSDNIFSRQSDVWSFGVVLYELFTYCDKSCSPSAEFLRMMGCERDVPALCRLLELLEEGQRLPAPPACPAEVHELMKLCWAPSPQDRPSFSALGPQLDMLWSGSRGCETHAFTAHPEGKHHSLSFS

[14] = test system: mice; type: in vivo; conditions: absence of injury
[15] = test system: mice; type: in vivo; parameters: Paw Thickness / Paw thickness AVG 30 / Paw thickness AVG 60 / Paw thickness AVG 120: unit not given here; conditions: for Paw Thickness: duplicate readings; for Paw thickness %BL CARR: used for Figure 3E
[16] = 10000 nM, read-out: Percent Control
[17] = 30 min, Carrageenan 30 µg, Group Average of 5 mice
[18] = 30 min, Carrageenan 30 µg, individual mouse
[19] = 60 min, Carrageenan 30 µg, Group Average of 5 mice
[20] = 60 min, Carrageenan 30 µg, individual mouse
[21] = 120 min, Carrageenan 30 µg, Group Average of 5 mice
[22] = 120 min, Carrageenan 30 µg, individual mouse
[23] = 180 min, Carrageenan 30 µg, Group Average of 5 mice
[24] = 180 min, Carrageenan 30 µg, individual mouse
[25] = 24 hours, Carrageenan 30 µg, Group Average of 5 mice
[26] = 24 hours, Carrageenan 30 µg, individual mouse

ERBB4, sequence (Q15303 26-1308): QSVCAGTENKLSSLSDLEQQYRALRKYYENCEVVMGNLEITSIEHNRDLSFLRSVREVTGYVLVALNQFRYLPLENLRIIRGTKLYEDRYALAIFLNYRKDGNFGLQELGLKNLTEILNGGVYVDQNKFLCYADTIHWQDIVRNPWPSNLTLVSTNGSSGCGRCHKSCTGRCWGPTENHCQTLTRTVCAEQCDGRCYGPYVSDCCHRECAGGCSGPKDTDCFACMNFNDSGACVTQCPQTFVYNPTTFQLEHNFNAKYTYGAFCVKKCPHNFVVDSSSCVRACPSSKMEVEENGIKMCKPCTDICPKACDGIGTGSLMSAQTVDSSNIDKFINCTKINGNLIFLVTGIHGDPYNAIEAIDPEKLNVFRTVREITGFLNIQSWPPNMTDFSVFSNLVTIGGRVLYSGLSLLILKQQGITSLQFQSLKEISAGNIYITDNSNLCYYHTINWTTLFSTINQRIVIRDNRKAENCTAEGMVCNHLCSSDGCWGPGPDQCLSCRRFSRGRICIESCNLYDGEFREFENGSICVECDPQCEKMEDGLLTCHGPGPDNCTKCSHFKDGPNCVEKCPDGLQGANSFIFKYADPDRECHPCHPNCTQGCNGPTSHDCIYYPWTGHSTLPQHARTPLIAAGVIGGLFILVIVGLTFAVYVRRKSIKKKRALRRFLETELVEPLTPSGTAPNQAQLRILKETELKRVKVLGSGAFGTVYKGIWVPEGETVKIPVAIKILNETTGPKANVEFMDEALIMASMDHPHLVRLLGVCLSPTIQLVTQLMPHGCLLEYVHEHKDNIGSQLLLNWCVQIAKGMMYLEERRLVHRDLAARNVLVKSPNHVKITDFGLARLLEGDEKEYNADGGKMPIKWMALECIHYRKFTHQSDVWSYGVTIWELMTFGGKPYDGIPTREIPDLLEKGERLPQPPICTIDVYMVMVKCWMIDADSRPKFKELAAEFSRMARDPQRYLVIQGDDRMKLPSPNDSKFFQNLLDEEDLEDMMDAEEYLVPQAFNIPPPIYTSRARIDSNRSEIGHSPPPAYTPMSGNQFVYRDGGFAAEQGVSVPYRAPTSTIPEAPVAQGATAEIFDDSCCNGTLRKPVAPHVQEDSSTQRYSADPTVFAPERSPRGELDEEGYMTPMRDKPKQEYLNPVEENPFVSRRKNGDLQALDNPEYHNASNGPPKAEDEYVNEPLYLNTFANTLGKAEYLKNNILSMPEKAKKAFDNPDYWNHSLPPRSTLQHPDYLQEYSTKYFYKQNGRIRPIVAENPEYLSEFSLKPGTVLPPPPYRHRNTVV

SMILES: O=C(O)C1CCC2(CC1)CC(Nc1ncnc3[nH]c4c(F)cccc4c13)C2 (centres unmarked) [Compound 74, OC(=O)C1CCC2(CC(C2)NC=3N=CN=C4NC=5C(F)=CC=CC5C34)CC1]
- remaining activity at 10 µM [1]: 99%
- remaining activity at 10 µM [2]: 63%
- remaining activity at 10 µM [3]: 97%
- remaining activity at 10 µM [4]: 23%
- remaining activity at 10 µM [5]: 97%
- remaining activity at 10 µM [6]: 53%
- remaining activity at 10 µM [7]: 76%
- remaining activity at 10 µM [8]: 100%
- Ki [9]: 366 nM
- remaining binding at 10 µM [10, 16]: 0%
- Signal (qPCR) ([10]; JAK2, [Compound] 0.001 nM): 2.42e-6 and 2.15e-6
- Signal (qPCR) ([10]; JAK2, [Compound] 0.01 nM): 2.35e-6 and 2.44e-6
- Signal (qPCR) ([10]; JAK2, [Compound] 0.169 nM): 2.62e-6 and 2.24e-6
- Signal (qPCR) ([10]; JAK2, [Compound] 0.508 nM): 2.26e-6 and 2.31e-6
- Signal (qPCR) ([10]; JAK2, [Compound] 1.52 nM): 2.56e-6 and 2.32e-6
- Signal (qPCR) ([10]; JAK2, [Compound] 13.7 nM): 2.33e-6 and 2.17e-6
- Signal (qPCR) ([10]; JAK2, [Compound] 41.2 nM): 2.15e-6 and 2.16e-6
- Signal (qPCR) ([10]; JAK2, [Compound] 123 nM): 2.08e-6 and 2e-6
- Signal (qPCR) ([10]; JAK2, [Compound] 370 nM): 1.2e-6
- Signal (qPCR) ([10]; JAK2, [Compound] 3330 nM): 1.6e-7 and 1.8e-7
- Signal (qPCR) ([10]; JAK2, [Compound] 10000 nM): 4e-8
- remaining activity at 10 µM [11]: 84%
- inhibition in kinase panel [12]: notable inhibition of five kinases
- remaining binding at 10 µM [13, 16]: 0.25%
- Signal (qPCR) ([13]; JAK3, [Compound] 0.0001 nM): 1.3e-6 and 8.87e-7
- Signal (qPCR) ([13]; JAK3, [Compound] 0.001 nM): 1.24e-6 and 1.2e-6
- Signal (qPCR) ([13]; JAK3, [Compound] 0.01 nM): 1.37e-6 and 1.42e-6
- Signal (qPCR) ([13]; JAK3, [Compound] 0.169 nM): 1.07e-6 and 1.21e-6
- Signal (qPCR) ([13]; JAK3, [Compound] 0.508 nM): 1.06e-6 and 1.26e-6
- Signal (qPCR) ([13]; JAK3, [Compound] 1.52 nM): 1.19e-6 and 1.38e-6
- Signal (qPCR) ([13]; JAK3, [Compound] 4.57 nM): 1.36e-6 and 1.47e-6
- Signal (qPCR) ([13]; JAK3, [Compound] 13.7 nM): 1.11e-6 and 1.19e-6
- Signal (qPCR) ([13]; JAK3, [Compound] 41.2 nM): 1.18e-6 and 1.3e-6
- Signal (qPCR) ([13]; JAK3, [Compound] 123 nM): 1.07e-6 and 1.06e-6
- Signal (qPCR) ([13]; JAK3, [Compound] 370 nM): 8.09e-7 and 7.97e-7
- Signal (qPCR) ([13]; JAK3, [Compound] 3330 nM): 1.07e-7
- Signal (qPCR) ([13]; JAK3, [Compound] 10000 nM): 2.42e-8 and 3.31e-8

SMILES: O=C([O-])C1CCC2(CC1)CC(Nc1ncnc3[nH]c4c(F)cccc4c13)C2.[Na+] (centres unmarked) [Compound 77, [Na+].[O-]C(=O)C1CCC2(CC(C2)NC=3N=CN=C4NC=5C(F)=CC=CC5C34)CC1]
- effect on baseline mechanical thresholds [14]: no effect
- effect on carrageenan-induced paw edema ([15]; 30 mg/kg i.p., one day after carrageenan): significantly reduced
- Paw thickness %BL CARR, Group Average [15, 17]: 92.2% and 96.7%
- Paw thickness %Baseline, Group Average [15, 17]: 118.7% and 118.1%
- Paw thickness AVG 30, Group Average [15, 17]: 2.0
- Paw thickness %Baseline [15, 18]: 122.7% and 124.6% and 120.5% and 111.5% and 114.1% and 116.5% and 122.2% and 107.4% and 119.7% and 124.9%
- Paw thickness AVG 30 [15, 18]: 2.0 and 2.2 and 2.1 and 1.9 and 1.8
- Paw Thickness [15, 18]: 1.9 and 2.04 and 2.2 and 2.1 and 2.14 and 2.06 and 1.98 and 2.08 and 1.95 and 1.77 and 1.88 and 2 and 2.13 and 2.02
- Paw thickness %BL CARR [15, 18]: 89.5% and 101.4% and 91.7% and 92.1% and 86.4% and 102.3% and 101.6% and 84.9% and 96.7% and 98.1%
- Paw thickness %BL CARR, Group Average [15, 19]: 91.8% and 95.5%
- Paw thickness %Baseline, Group Average [15, 19]: 118.2% and 116.8%
- Paw thickness AVG 60, Group Average [15, 19]: 2.0
- Paw thickness %Baseline [15, 20]: 124.6% and 118.8% and 118.2% and 112.4% and 117.1% and 109.8% and 115.0% and 114.7% and 118.3% and 126.1%
- Paw thickness AVG 60 [15, 20]: 2.0 and 2.1 and 1.9
- Paw Thickness [15, 20]: 2.1 and 1.9 and 2 and 2.02 and 1.97 and 1.98 and 2.05 and 2.09 and 2.2
- Paw thickness %BL CARR [15, 20]: 90.9% and 96.7% and 89.9% and 92.8% and 88.6% and 96.4% and 95.6% and 90.7% and 99.1%
- Paw thickness %BL CARR, Group Average [15, 21]: 89.1% and 94.8%
- Paw thickness %Baseline, Group Average [15, 21]: 114.9% and 115.9%
- Paw thickness AVG 120, Group Average [15, 21]: 2.0
- Paw thickness %Baseline [15, 22]: 126.2% and 111.6% and 112.4% and 111.0% and 113.2% and 111.3% and 115.8% and 115.9% and 114.2% and 122.2%
- Paw thickness AVG 120 [15, 22]: 2.0 and 1.9 and 2.1
- Paw Thickness [15, 22]: 2 and 2.05 and 1.9 and 1.95 and 2.04 and 2.1 and 2.07 and 1.91 and 2.03 and 1.94 and 1.97
- Paw thickness %BL CARR [15, 22]: 92.0% and 90.8% and 85.5% and 91.6% and 85.7% and 97.7% and 96.3% and 92.3% and 96.0%
- Paw thickness %BL CARR, Group Average [15, 23]: 89.9% and 92.7%
- Paw thickness %Baseline, Group Average [15, 23]: 115.8% and 113.3%
- Paw thickness AVG 180, Group Average [15, 23]: 2.0
- Paw thickness %Baseline [15, 24]: 125.5% and 114.5% and 111.0% and 112.4% and 115.6% and 112.7% and 106.9% and 111.8% and 115.9% and 118.9%
- Paw thickness AVG 180 [15, 24]: 2.0 and 1.9
- Paw Thickness [15, 24]: 2.03 and 2 and 1.95 and 1.9 and 2.09 and 2.02 and 1.91 and 1.99 and 1.96
- Paw thickness %BL CARR [15, 24]: 91.6% and 93.2% and 84.4% and 92.8% and 87.5% and 99.0% and 88.9% and 88.4% and 93.7% and 93.4%
- Paw thickness %BL CARR, Group Average [15, 25]: 85.7% and 94.0%
- Paw thickness %Baseline, Group Average [15, 25]: 110.4% and 114.8%
- Paw thickness AVG 24h, Group Average [15, 25]: 1.9 and 2.0
- Paw thickness %Baseline [15, 26]: 118.4% and 111.0% and 109.2% and 105.9% and 107.4% and 115.6% and 114.7% and 114.5% and 120.1%
- Paw thickness AVG 24h [15, 26]: 1.9 and 1.8 and 2.0
- Paw Thickness [15, 26]: 1.9 (2×) and 1.83 and 2 and 1.92 and 1.87 and 1.84 and 1.8 and 1.85 and 1.93 and 1.95 (2×)
- Paw thickness %BL CARR [15, 26]: 86.4% and 90.3% and 83.1% and 87.4% and 81.3% and 101.5% and 90.8% and 90.7% and 92.5% and 94.3%
